# Source: patent US10654917B2, “Antibody molecules and peptide delivery systems for use in alzheimer's disease and related disorders” (TECHNOPHAGE, INVESTIGAÇĀO E DESENVOLVIMENTO EM …, priority 2015, dated 2020)
# Read-outs that look alike come from different tables or passages of the source. Residues, ends and D or L forms follow the SMILES beside them. *: point of attachment. X1 = Cc1nn(CCN(CCN)CCCC(=O)*)c(C)c1CC(=O)O
# Tests used:
# [1] = Biodistribution of technetium-labelled peptides; format: in vivo, CD1 mice; conditions: iv, total radioactivity
# How it was run: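 CD1 mice received technetium-labelled peptide (8.5×10^−5 M final labelling concentration, in PBS) by tail-vein iv injection; in a repeat study dose was raised one hundred fold. Organs were dissected, washed, weighed and counted at 5 and 60 min, or 2 and 60 min in the repeat, as % injected activity or per gram tissue.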
# [2] = Partition coefficient (log Po/w) of radiopeptides; format: physicochemical
# Description: Table 7 lists each peptide's name, isoelectric point (PI), charge (number of positive residues), calculated mass (in Da), and ion found; as well as the name, calculated mass, and found ion for the corresponding conjugate; and also retention times in HPLC and the partition coefficient (log Po/w). These values allowed the determination of the hydrophilic nature of peptides, where pepH1 and pepH4 were identified as the most hydrophilic peptides.
smiles,measurement,setting,value
"CC[C@H](C)[C@H](NC(=O)CNC(=O)[C@H](C)NC(=O)CCCN(CCN)CCn1nc(C)c(CC(=O)O)c1C)C(=O)N[C@@H](CC(C)C)C(=O)N[C@@H](CCCCN)C(=O)N[C@@H](CCCNC(=N)N)C(=O)N[C@@H](Cc1c[nH]c2ccccc12)C(=O)O [^99mTc(CO)3-Pz^1-pepH3, metal not drawn] (X1-AGILKRW-OH; C-terminus assumed)",tissue uptake at 2 min,"[1]; CD1, blood, 140 ug/mouse, 140 μg/mouse, read-out: injected activity in Blood",8.6 ± 0.9 %ID/g
same,tissue uptake at 1 h,"[1]; CD1, blood, 140 ug/mouse, 140 μg/mouse, 1 hour, read-out: injected activity in Blood",0.43 ± 0.04 %ID/g
same,tissue uptake at 2 min,"[1]; CD1, bone, 140 ug/mouse, 140 μg/mouse, read-out: injected activity in Bone",1.89 ± 0.04 %ID/g
same,tissue uptake at 1 h,"[1]; CD1, bone, 140 ug/mouse, 140 μg/mouse, 1 hour, read-out: injected activity in Bone",0.19 ± 0.01 %ID/g
same,tissue uptake at 2 min,"[1]; CD1, brain, 140 ug/mouse, 140 μg/mouse, read-out: injected activity in Brain",0.31 ± 0.07 %ID/g
same,tissue uptake at 1 h,"[1]; CD1, brain, 140 ug/mouse, 140 μg/mouse, 1 hour, read-out: injected activity in Brain",0.03 ± 0.01 %ID/g
same,tissue uptake at 2 min,"[1]; CD1, heart, 140 ug/mouse, 140 μg/mouse, read-out: injected activity in Heart",2.2 ± 0.3 %ID/g
same,tissue uptake at 1 h,"[1]; CD1, heart, 140 ug/mouse, 140 μg/mouse, 1 hour, read-out: injected activity in Heart",0.14 ± 0.01 %ID/g
same,dose excreted at 1 h,"[1]; CD1, in vivo, 140 ug/mouse, 140 μg/mouse, 1 hour, read-out: Excretion",36 ± 11.2%
same,tissue uptake at 2 min,"[1]; CD1, intestine, 140 ug/mouse, 140 μg/mouse, read-out: injected activity in Intestine",1.4 ± 0.2 %ID/g
same,tissue uptake at 1 h,"[1]; CD1, intestine, 140 ug/mouse, 140 μg/mouse, 1 hour, read-out: injected activity in Intestine",23 ± 7.9 %ID/g
same,tissue uptake at 2 min,"[1]; CD1, kidney, 140 ug/mouse, 140 μg/mouse, read-out: injected activity in Kidney",23.1 ± 3.4 %ID/g
same,tissue uptake at 1 h,"[1]; CD1, kidney, 140 ug/mouse, 140 μg/mouse, 1 hour, read-out: injected activity in Kidney",3.5 ± 0.7 %ID/g
same,tissue uptake at 2 min,"[1]; CD1, liver, 140 ug/mouse, 140 μg/mouse, read-out: injected activity in Liver",18.8 ± 6.1 %ID/g
same,tissue uptake at 1 h,"[1]; CD1, liver, 140 ug/mouse, 140 μg/mouse, 1 hour, read-out: injected activity in Liver",2.3 ± 0.2 %ID/g
same,tissue uptake at 2 min,"[1]; CD1, lung, 140 ug/mouse, 140 μg/mouse, read-out: injected activity in Lung",4.48 ± 0.01 %ID/g
same,tissue uptake at 1 h,"[1]; CD1, lung, 140 ug/mouse, 140 μg/mouse, 1 hour, read-out: injected activity in Lung",0.31 ± 0.03 %ID/g
same,tissue uptake at 2 min,"[1]; CD1, muscle, 140 ug/mouse, 140 μg/mouse, read-out: injected activity in Muscle",1.4 ± 0.2 %ID/g
same,tissue uptake at 1 h,"[1]; CD1, muscle, 140 ug/mouse, 140 μg/mouse, 1 hour, read-out: injected activity in Muscle",0.2 ± 0.1 %ID/g
same,tissue uptake at 2 min,"[1]; CD1, spleen, 140 ug/mouse, 140 μg/mouse, read-out: injected activity in Spleen",1.6 ± 0.4 %ID/g
same,tissue uptake at 1 h,"[1]; CD1, spleen, 140 ug/mouse, 140 μg/mouse, 1 hour, read-out: injected activity in Spleen",0.81 ± 0.01 %ID/g
same,tissue uptake at 2 min,"[1]; CD1, stomach, 140 ug/mouse, 140 μg/mouse, read-out: injected activity in Stomach",1.1 ± 0.2 %ID/g
same,tissue uptake at 1 h,"[1]; CD1, stomach, 140 ug/mouse, 140 μg/mouse, 1 hour, read-out: injected activity in Stomach",5.2 ± 0.7 %ID/g
same,tissue uptake at 5 min,"[1]; mouse, blood, 10 ug, CD1 mice, 5 min, 10 μg, read-out: injected activity in Blood",4.7 ± 0.6 %ID/g
same,tissue uptake at 1 h,"[1]; mouse, blood, 10 ug, CD1 mice, 1 hour, 10 μg, read-out: injected activity in Blood",1.2 ± 0.4 %ID/g
same,tissue uptake at 5 min,"[1]; mouse, bone, 10 ug, CD1 mice, 5 min, 10 μg, read-out: injected activity in Bone",1.2 ± 0.1 %ID/g
same,tissue uptake at 1 h,"[1]; mouse, bone, 10 ug, CD1 mice, 1 hour, 10 μg, read-out: injected activity in Bone",0.26 ± 0.05 %ID/g
same,tissue uptake at 5 min,"[1]; mouse, brain, 10 ug, CD1 mice, 5 min, 10 μg, read-out: injected activity in Brain",0.15 ± 0.02 %ID/g
same,tissue uptake at 1 h,"[1]; mouse, brain, 10 ug, CD1 mice, 1 hour, 10 μg, read-out: injected activity in Brain",0.04 ± 0.01 %ID/g
same,tissue uptake at 5 min,"[1]; mouse, heart, 10 ug, CD1 mice, 5 min, 10 μg, read-out: injected activity in Heart",1.5 ± 0.5 %ID/g
same,tissue uptake at 1 h,"[1]; mouse, heart, 10 ug, CD1 mice, 1 hour, 10 μg, read-out: injected activity in Heart",0.35 ± 0.01 %ID/g
same,percent of injected dose excreted at 5 min,"[1]; mouse, in vivo, 10 ug, CD1 mice, 5 min, 10 μg, read-out: Excretion",19.6 ± 0.3 %ID
same,percent of injected dose excreted at 1 h,"[1]; mouse, in vivo, 10 ug, CD1 mice, 1 hour, 10 μg, read-out: Excretion",10.5 ± 8.6 %ID
same,tissue uptake at 5 min,"[1]; mouse, intestine, 10 ug, CD1 mice, 5 min, 10 μg, read-out: injected activity in Intestine",3 ± 0.3 %ID/g
same,tissue uptake at 1 h,"[1]; mouse, intestine, 10 ug, CD1 mice, 1 hour, 10 μg, read-out: injected activity in Intestine",7.4 ± 0.4 %ID/g
same,tissue uptake at 5 min,"[1]; mouse, kidney, 10 ug, CD1 mice, 5 min, 10 μg, read-out: injected activity in Kidney",11.9 ± 3.8 %ID/g
same,tissue uptake at 1 h,"[1]; mouse, kidney, 10 ug, CD1 mice, 1 hour, 10 μg, read-out: injected activity in Kidney",0.4 ± 2 %ID/g
same,tissue uptake at 5 min,"[1]; mouse, liver, 10 ug, CD1 mice, 5 min, 10 μg, read-out: injected activity in Liver",7.6 ± 0.1 %ID/g
same,tissue uptake at 1 h,"[1]; mouse, liver, 10 ug, CD1 mice, 1 hour, 10 μg, read-out: injected activity in Liver",2.3 ± 0.2 %ID/g
same,tissue uptake at 5 min,"[1]; mouse, lung, 10 ug, CD1 mice, 5 min, 10 μg, read-out: injected activity in Lung",3.7 ± 0.2 %ID/g
same,tissue uptake at 1 h,"[1]; mouse, lung, 10 ug, CD1 mice, 1 hour, 10 μg, read-out: injected activity in Lung",1 ± 0.2 %ID/g
same,tissue uptake at 5 min,"[1]; mouse, muscle, 10 ug, CD1 mice, 5 min, 10 μg, read-out: injected activity in Muscle",1 ± 0.2 %ID/g
same,tissue uptake at 1 h,"[1]; mouse, muscle, 10 ug, CD1 mice, 1 hour, 10 μg, read-out: injected activity in Muscle",0.3 ± 0.1 %ID/g
same,tissue uptake at 5 min,"[1]; mouse, pancreas, 10 ug, CD1 mice, 5 min, 10 μg, read-out: injected activity in Pancreas",1.1 ± 0.1 %ID/g
same,tissue uptake at 1 h,"[1]; mouse, pancreas, 10 ug, CD1 mice, 1 hour, 10 μg, read-out: injected activity in Pancreas",0.5 ± 0.2 %ID/g
same,tissue uptake at 5 min,"[1]; mouse, spleen, 10 ug, CD1 mice, 5 min, 10 μg, read-out: injected activity in Spleen",1.5 ± 0.2 %ID/g
same,tissue uptake at 1 h,"[1]; mouse, spleen, 10 ug, CD1 mice, 1 hour, 10 μg, read-out: injected activity in Spleen",0.81 ± 0.01 %ID/g
same,tissue uptake at 5 min,"[1]; mouse, stomach, 10 ug, CD1 mice, 5 min, 10 μg, read-out: injected activity in Stomach",0.17 ± 0.02 %ID/g
same,tissue uptake at 1 h,"[1]; mouse, stomach, 10 ug, CD1 mice, 1 hour, 10 μg, read-out: injected activity in Stomach",0.4 ± 0.2 %ID/g
same,log Po/w of radiopeptides,[2],0.11 ± 0.06
